Experimental data taken from paper PMC9586926, “An efflux-susceptible antibiotic-adjuvant with systemic efficacy against mouse infections” (Scientific Reports, 2022).
Where a SMILES comes first, the peptide text is derived from it. [ ]: non-standard residue; d: D form. The star is where a group is joined. 12Ado = NCCCCCCCCCCCC(=O)O; Decanoyl = CCCCCCCCCC(=O)*; Dab = NCC[C@H](N)C(=O)O

How the values were obtained:
[1] = tested on: K. pneumoniae 1287; test: Combination with antibiotics, modified checkerboard titration; format: cell-based, Klebsiella pneumoniae
Protocol: (§1) MIC was determined according to the broth microdilution method: antimicrobials were subjected to serial twofold dilutions in LB medium, and incubated with 5 × 10^5 CFU/ml of bacteria (final volume of 200 µl) for 18–24 h at 37 °C. Then, O.D.620 nm was measured (BioTek Instruments Synergy HT; Winooski, VT, USA), and the MIC was defined as the lowest antimicrobial concentration for which no increase in O.D.620 nm was evident, compared to the untreated control.
(§2) Lipopeptides and antibiotics combinations were assessed using a modified version of the checkerboard titration method: Antibiotics MIC was determined in LB medium containing sub-inhibitory lipopeptide concentrations. The sensitization factor (SF)[46] was then calculated by SF = MICA/MICC, where “MICA” is the antibiotic MIC in absence of an adjuvant and “MICC “ is the antibiotic MIC in presence of an adjuvant, for a specified adjuvant concentration. Combinations were classified as synergistic when antibiotics MIC were decreased by > 4 folds. Alternatively, the fractional inhibitory concentration index (FICI) was calculated by FICI = MICC1/MICA1 + MICC2/MICA2, where “MICC1” and “MICC2” respectively specify the antibiotic and the adjuvant MIC values upon their combination, whereas “MICA1” and “MICA2” respectively specify the antibiotic and the adjuvant MIC values when tested individually. Combinations were classified as synergistic for FICI < 0.5.

[2] = tested on: E. coli 25922; format: cell-based, Escherichia coli
Protocol: as §1, §2

[3] = tested on: murine RBC; test: Hemolysis; format: cell-based; details: 1% hematocrit murine RBC, 3 h, 37 °C
Protocol: Permeabilization of red blood cells (RBC) was evaluated using absorbance measurements of extracellular hemoglobin. Serial twofold dilutions of lipopeptides were incubated with 1% hematocrit of murine RBC for 3 h at 37 °C with shaking. Samples were then centrifuged at 20,000 RCF for 5 min, and absorbance of the supernatants was measured at 450 nm (BioTek Instruments Synergy HT; Winooski, VT, USA). Percent hemolysis was then calculated by (AS − AN)/(AP − AN) × 100; where AS, AN, and AP represent the absorbance of the sample, negative control (PBS) and positive control (Milli-Q water), respectively. LC50 values were extracted from trend-lines generated for linear-regions of plots correlating lipopeptide concentrations and percent hemolysis.

[4] = Acute toxicity, maximal tolerated dose; format: in vivo, mice; details: S.C., up to 40 mg/kg, seven-day monitoring
Protocol: The study is reported in accordance with ARRIVE guidelines.
The maximal tolerated dose (MTD) was determined after sub-cutaneous (S.C.) administration of lipopeptides solutions (0.2 ml). Mice (N = 3 per group) were monitored for up to 7 days and their physiological condition was scored on a scale of 1 to 6, in which a score of 1 indicates no apparent signs of distress, and a score of 6 signifies severe distress necessitating the mice immediate euthanasia.

[5] = Binding to lipopolysaccharide, displacement of mono-dansylated polymyxin B; design: species or system E. coli; details: 2 µM DPMB, 3 µg/ml LPS, 1.5 h, compared with PMB; two independent experiments
Protocol: Affinity to lipopolysaccharide (LPS) was assessed using fluorescent measurements of displaced mono-dansylated polymyxin B (DPMB)[68]. 180 µl of 5 mM HEPES containing 2 µM DPMB and 3 µg/ml LPS (from E. coli) were dispensed into black microtiter plates and mixed with 20 µl of HEPES containing serial twofold dilutions of lipopeptides. Plates were incubated in the dark for 1.5 h at room-temperature and fluorescence (excitation: 340 nm; emission: 485 nm) was recorded immediately thereafter (BioTek Instruments Synergy HT; Winooski, VT, USA).

[6] = […] S.C., mice plasma, UPLC-MS
Protocol: Animal procedures were reviewed and approved by the Institutional Animal Care and Use Committee (ethics no. IL-0800519, IL-0760711, IL-0550618, IL-0320320, IL-1270821) and performed in accordance with the “Guide for the Care and Use of Laboratory Animals”, published by the US National Research Council[70]. The study is reported in accordance with ARRIVE guidelines. All protocols employed 4–5-week-old male ICR mice, weighing 20–25 g (Envigo; Jerusalem, Israel). Mice were kept on a 12 h light/dark cycle and provided with food and water ad-libitum. At the designated experimental end-points mice were euthanized by means of CO2 asphyxiation. […]
To assess lipopeptides circulating concentrations, mice (N = 3 per group) were S.C. administered with lipopeptides solutions (0.2 ml), sacrificed at specified times afterwards and their blood was aseptically collected. […] 0.5 ml of the supernatant were diluted 2-folds with Milli-Q water and analyzed by UPLC-MS using a C18 column. Quantification was performed using a calibration-curve generated with similarly processed blood samples, initially spiked with known lipopeptide concentrations. […] Quantification was performed using a calibration-curve generated with fresh lipopeptide solutions of known concentrations prepared in Milli-Q water.

[7] = tested on: E. coli 25922; test: Cytoplasmic membrane depolarization, DiSC3(5) fluorescence; format: cell-based, Escherichia coli; details: C10BBc12B up to 10 µM; PMB 2.5 µM
Protocol: Lipopeptides aptitude to depolarize the CM was evaluated using fluorescent measurements of the transmembrane potential sensitive dye 3,3′-Dipropylthiadicarbocyanine iodide (DiSC3(5))[69]. Bacteria (O.D.600 nm = 0.1) were washed by centrifugation at 10,000 RCF for 5 min, supernatant aspiration, and pellet resuspension in 5 mM HEPES containing 20 mM glucose, 50 mM KCl and 0.2 mM EDTA (pH = 7.2). This suspension was mixed with DiSC3(5) (400 µM in DMSO) to reach a final DiSC3(5) concentration of 4 µM and was incubated in the dark for 1 h at 37 °C with shaking. Then, 180 µl of this mixture were dispensed into black microtiter plates and fluorescence was recorded (excitation: 622 nm; emission: 670 nm) at 37 °C with shaking until baseline stabilization (BioTek Instruments Synergy HT; Winooski, VT, USA). Finally, 20 µl of HEPES containing serial twofold dilutions of lipopeptides were added and fluorescence was recorded for up to 30 min at the same conditions.

CCCCCCCCCC(=O)N[C@@H](CCN)C(=O)N[C@@H](CCN)C(=O)NCCCCCCCCCCCC(=O)N[C@@H](CCN)C(N)=O [C10BBc12B, decanoyl-bis.diaminobutyrate-aminododecanoyl-diaminobutyrate-amide] (Decanoyl-[Dab][Dab][12Ado][Dab]-NH2)
sensitization efficiency to rifampin [1]: 130,000 folds
relationship with EPI PAβN in rifampin potentiation ([2]; 10 µM C10BBc12B ± 5 µg/ml PAβN, SF for rifampin): antagonistic relationship
sensitization efficiency to rifampin ([2]; E. coli, from isobologram data): 65,000 folds
LC50 Erythrocytes (50% hemolysis) [3]: > 50 µM
signs of distress [4]: no apparent physiological signs of distress
displacement of LPS-bound DPMB [5]: inferior ability
time with antibiotics potentiating concentrations (≥ 2.5 µg/ml) maintained [6]: > 2 h
time after which most lipopeptide cleared from the bloodstream ([6]; n = 3 per time point): ~ 180 min
CM depolarization (trans-membrane potential) [7]: unable to affect the trans-membrane potential
